Source: the Kinase Knowledgebase extract (Sharma et al. 2016)

Each molecule was assayed against CDK2 (human) (UniProt P24941) (assay: Enzyme Assay).

| IC50 [µM] | SMILES |
| --- | --- |
| 29 | C=CCOc1ccc(CN/C=C2\C(=O)NC(=O)c3ccc(Br)cc32)cc1O |
| 23 | O=C1NC(=O)c2ccccc2/C1=C/Nc1ccc(CN2CCCCC2)cc1 |
| 0.7 | CCCOc1ccc(CN/C=C2\C(=O)NC(=O)c3ccc(I)cc32)nc1O |
| 50 | COc1ccc(CNC=C2C(=O)NC(=O)c3ccc(-c4ccc5ccccc5c4)cc32)cc1O |
| 50 | Cc1cccc(-c2ccc3c(c2)C(=CNCc2ccc(O)c(O)c2)C(=O)NC3=O)c1 |
| 2.4 | COc1cnc(CNC=C2C(=O)NC(=O)c3ccc(-n4cccc4)cc32)cc1O |
| 50 | O=C1NC(=O)c2ccc(Br)cc2/C1=C/NCc1ccc(OCCO)c(O)c1 |
| 50 | O=C1NC(=O)c2ccc(-c3ccoc3)cc2/C1=C/NCc1ccc(OC(F)F)c(O)c1 |
| 50 | CC(=O)Nc1ccc(CN/C=C2\C(=O)NC(=O)c3ccc(Br)cc32)cc1O |
| 13.1 | CC(C)(C)c1ccc2c(c1)C(=CNCc1ccc(-c3ccoc3)c(O)c1)C(=O)NC2=O |
| 13.1 | CC(C)(C)c1ccc2c(c1)C(=CNCc1cc(O)ccc1-c1ccoc1)C(=O)NC2=O |
